Laboratory results taken from patent EP0433759A1, “4-Substituted alkyl carbapenem antibiotics” (Bristol-Myers Squibb Company, priority 1989, dated 1991).

Assay: Solubility in water, observation on the lyophilized product
Assay type: physicochemical
Details: lyophilized material
Description: A solution of (4R,5S,6S)-4-(4"-aminobutyl)-6-[(1'R)-1'-hydroxyethyl]-3-[(pyridin-4-yl)methylthio]-7-oxo-1-azabicyclo[3.2.0]hept-2-ene-2-carboxylic acid (0.134 g, 0.34 mmol) in 15 mL of cold water (pH 6.4), was adjusted to pH 8.0 with 1 M NaOH. Then 0.170 g (1.36 mmol) of aminoiminomethanesulfonic acid [K. Kim et al., Tet. Lett., 29, 3183 (1988)] was added in small portions over 5 min while maintaining the pH at 8 with 1 M NaOH. Three more portions of aminoiminomethanesulfonic acid (3 x 0.050 g) were added at 30 min intervals and the resulting mixture (some insoluble material) was stirred for a total of 3 h at 0-5 C. The pH was maintained throughout at 8 with 1 M NaOH. Then 15 mL of 0.2M pH 6.0 phosphate buffer was added and the resulting homogeneous solution was chromatographed on reverse phase silica gel (µBondapak C18, 2.5 x 14 cm). Elution with a gradient of acetonitrile (0-10%) in water gave 0.103 g (69%) of the title compound as a white amorphous powder after freeze drying.

C[C@@H](O)[C@H]1C(=O)N2C(C(=O)O)=C(SCc3ccncc3)[C@H](CCCCNC(=N)N)[C@H]12 [Example 78, (4R,5S,6S)-4-(4"-Guanidinobutyl]-6-[(1'R)-1'-hydroxyethyl]-3-[(pyridin-4-yl)methylthio]-7-oxo-1-azabicyclo-[3.2.0]hept-2-ene-2-carboxylic acid]
Solubility in water: only slightly soluble in water
